Measurements as given in patent US8791145B2, “Agricultural formulations with acyl morpholines and polar aprotic co-solvents” (Akzo Nobel Chemicals International B.V., priority 2010, dated 2014).

Key:
[1] = Literature value from Adjuvant Newsletter; cited from earlier work
[2] = Dilution of Imidacloprid formulation in water, ocular inspection; format: physicochemical; set-up: key: +: easily dissolved; −: permanent crystals; NS: Non soluble; conditions: 200 g/l diluted to 0.4 g/l
Description: Formulations containing 200 g/l of Imidacloprid was formulated together with 40 g/l of an alcohol ethoxylate (2-propylheptanol ethoxylated with 8 moles of EO per mole of alcohol) and diluted to a final volume of one liter with each one of the solvents N-formyl morpholine, N-acetyl morpholine and N-propionyl morpholine along with a co-solvent. The co-solvents used were dimethylsulfoxide (DMSO), propylene carbonate (PC), dimethylformamide (DMF) and ethyl lactate (EL). Ethyl lactate is a protic solvent and is included in the experiment for comparison. The amount of each co-solvent, in % by weight of the total weight of morpholine and co-solvent, is seen in table 2. The solutions was diluted in water to an end concentration of imidacloprid of 0.4 g/l and the dilution was judged by ocular inspection with the naked eye, and in the table below, the following is used: • +: easily dissolved, • −: permanent crystals. • NS: Non soluble

[3] = Solubility in acyl morpholines; format: physicochemical; conditions: 23° C.
Procedure: Various agriculturally active ingredients were dissolved in N-formyl morpholine, N-acetyl morpholine and N-propionyl morpholine in order to evaluate the solubility of the active ingredients in the solvents. This was done by adding the active ingredient to a beaker and thereafter adding the solvent until a clear solution was obtained. The solutions were continually stirred at a temperature of 23° C. during the experiments. When everything had been dissolved, the beakers were left without stirring for 24 h to see if the solution was stable (i.e. no crystallization).

SMILES: O=[N+]([O-])NC1=NCCN1Cc1ccc(Cl)nc1 [Imidacloprid]
- Dissolution of active ingredient into Lactic acid dimethyl amide [1]: 14 grams of active ingredient in 100 g solvent
- Crystallization upon dilution in water ([2]; NAM, 0% DMF): −
- Crystallization upon dilution in water ([2]; NAM, 0% DMSO): −
- Crystallization upon dilution in water ([2]; NAM, 0% EL): −
- Crystallization upon dilution in water ([2]; NAM, 0% PC): −
- Crystallization upon dilution in water ([2]; NAM, 5% DMF): −
- Crystallization upon dilution in water ([2]; NAM, 5% DMSO): −
- Crystallization upon dilution in water ([2]; NAM, 5% EL): −
- Crystallization upon dilution in water ([2]; NAM, 5% PC): −
- Crystallization upon dilution in water ([2]; NAM, 10% DMF): −
- Crystallization upon dilution in water ([2]; NAM, 10% DMSO): −
- Crystallization upon dilution in water ([2]; NAM, 10% EL): NS
- Crystallization upon dilution in water ([2]; NAM, 10% PC): −
- Crystallization upon dilution in water ([2]; NAM, 15% DMF): −
- Crystallization upon dilution in water ([2]; NAM, 15% DMSO): +
- Crystallization upon dilution in water ([2]; NAM, 15% EL): NS
- Crystallization upon dilution in water ([2]; NAM, 15% PC): −
- Crystallization upon dilution in water ([2]; NAM, 20% DMF): +
- Crystallization upon dilution in water ([2]; NAM, 20% DMSO): +
- Crystallization upon dilution in water ([2]; NAM, 20% EL): NS
- Crystallization upon dilution in water ([2]; NAM, 20% PC): NS
- Crystallization upon dilution in water ([2]; NAM, 25% DMF): +
- Crystallization upon dilution in water ([2]; NAM, 25% DMSO): +
- Crystallization upon dilution in water ([2]; NAM, 25% EL): NS
- Crystallization upon dilution in water ([2]; NAM, 25% PC): NS
- Crystallization upon dilution in water ([2]; NAM, 30% DMF): +
- Crystallization upon dilution in water ([2]; NAM, 30% DMSO): +
- Crystallization upon dilution in water ([2]; NAM, 30% EL): NS
- Crystallization upon dilution in water ([2]; NAM, 30% PC): NS
- Crystallization upon dilution in water ([2]; NAM, 50% DMF): +
- Crystallization upon dilution in water ([2]; NAM, 50% DMSO): +
- Crystallization upon dilution in water ([2]; NAM, 50% EL): NS
- Crystallization upon dilution in water ([2]; NAM, 50% PC): NS
- Crystallization upon dilution in water ([2]; NAM, 95% DMF): +
- Crystallization upon dilution in water ([2]; NAM, 95% DMSO): +
- Crystallization upon dilution in water ([2]; NAM, 95% EL): NS
- Crystallization upon dilution in water ([2]; NAM, 95% PC): NS
- Crystallization upon dilution in water ([2]; NFM, 0% DMF): −
- Crystallization upon dilution in water ([2]; NFM, 0% DMSO): −
- Crystallization upon dilution in water ([2]; NFM, 0% EL): −
- Crystallization upon dilution in water ([2]; NFM, 0% PC): −
- Crystallization upon dilution in water ([2]; NFM, 5% DMF): −
- Crystallization upon dilution in water ([2]; NFM, 5% DMSO): −
- Crystallization upon dilution in water ([2]; NFM, 5% EL): −
- Crystallization upon dilution in water ([2]; NFM, 5% PC): −
- Crystallization upon dilution in water ([2]; NFM, 10% DMF): −
- Crystallization upon dilution in water ([2]; NFM, 10% DMSO): +
- Crystallization upon dilution in water ([2]; NFM, 10% EL): NS
- Crystallization upon dilution in water ([2]; NFM, 10% PC): −
- Crystallization upon dilution in water ([2]; NFM, 15% DMF): +
- Crystallization upon dilution in water ([2]; NFM, 15% DMSO): +
- Crystallization upon dilution in water ([2]; NFM, 15% EL): NS
- Crystallization upon dilution in water ([2]; NFM, 15% PC): +
- Crystallization upon dilution in water ([2]; NFM, 20% DMF): +
- Crystallization upon dilution in water ([2]; NFM, 20% DMSO): +
- Crystallization upon dilution in water ([2]; NFM, 20% EL): NS
- Crystallization upon dilution in water ([2]; NFM, 20% PC): +
- Crystallization upon dilution in water ([2]; NFM, 25% DMF): +
- Crystallization upon dilution in water ([2]; NFM, 25% DMSO): +
- Crystallization upon dilution in water ([2]; NFM, 25% EL): NS
- Crystallization upon dilution in water ([2]; NFM, 25% PC): +
- Crystallization upon dilution in water ([2]; NFM, 30% DMF): +
- Crystallization upon dilution in water ([2]; NFM, 30% DMSO): +
- Crystallization upon dilution in water ([2]; NFM, 30% EL): NS
- Crystallization upon dilution in water ([2]; NFM, 30% PC): NS
- Crystallization upon dilution in water ([2]; NFM, 50% DMF): +
- Crystallization upon dilution in water ([2]; NFM, 50% DMSO): +
- Crystallization upon dilution in water ([2]; NFM, 50% EL): NS
- Crystallization upon dilution in water ([2]; NFM, 50% PC): NS
- Crystallization upon dilution in water ([2]; NFM, 95% DMF): +
- Crystallization upon dilution in water ([2]; NFM, 95% DMSO): +
- Crystallization upon dilution in water ([2]; NFM, 95% EL): NS
- Crystallization upon dilution in water ([2]; NFM, 95% PC): NS
- Crystallization upon dilution in water ([2]; NPM, 0% DMF): −
- Crystallization upon dilution in water ([2]; NPM, 0% DMSO): −
- Crystallization upon dilution in water ([2]; NPM, 0% PC): −
- Crystallization upon dilution in water ([2]; NPM, 5% DMF): NS
- Crystallization upon dilution in water ([2]; NPM, 5% DMSO): NS
- Crystallization upon dilution in water ([2]; NPM, 5% PC): NS
- Crystallization upon dilution in water ([2]; NPM, 10% DMF): NS
- Crystallization upon dilution in water ([2]; NPM, 10% DMSO): NS
- Crystallization upon dilution in water ([2]; NPM, 10% PC): NS
- Crystallization upon dilution in water ([2]; NPM, 15% DMF): NS
- Crystallization upon dilution in water ([2]; NPM, 15% DMSO): NS
- Crystallization upon dilution in water ([2]; NPM, 15% PC): NS
- Crystallization upon dilution in water ([2]; NPM, 20% DMF): NS
- Crystallization upon dilution in water ([2]; NPM, 20% DMSO): NS
- Crystallization upon dilution in water ([2]; NPM, 20% PC): NS
- Crystallization upon dilution in water ([2]; NPM, 25% DMF): NS
- Crystallization upon dilution in water ([2]; NPM, 25% DMSO): −
- Crystallization upon dilution in water ([2]; NPM, 25% PC): NS
- Crystallization upon dilution in water ([2]; NPM, 30% DMF): −
- Crystallization upon dilution in water ([2]; NPM, 30% DMSO): −
- Crystallization upon dilution in water ([2]; NPM, 30% PC): NS
- Crystallization upon dilution in water ([2]; NPM, 50% DMF): +
- Crystallization upon dilution in water ([2]; NPM, 50% DMSO): +
- Crystallization upon dilution in water ([2]; NPM, 50% PC): NS
- Crystallization upon dilution in water ([2]; NPM, 95% DMF): +
- Crystallization upon dilution in water ([2]; NPM, 95% DMSO): +
- Crystallization upon dilution in water ([2]; NPM, 95% EL): NS
- Crystallization upon dilution in water ([2]; NPM, 95% PC): NS
- Dissolution of active ingredient into N-acetyl morpholine (NAM) ([3]; NAM): 26 grams of active ingredient in 100 g solvent
- Dissolution of active ingredient into N-formyl morpholine (NFM) ([3]; NFM): 30 grams of active ingredient in 100 g solvent
- Dissolution of active ingredient into N-propionyl morpholine (NPM) ([3]; NPM): 19 grams of active ingredient in 100 g solvent
